By IC50 is commonly meant the concentration that gives 50% inhibition.

The text below walks through data of patent US11136301B2, “Broad spectrum antiviral compounds and uses thereof” (The Regents Of The University Of California, priority 2015, dated 2021).

In assay [1] the test system is wild-type HIV-1 (HIV-1LAI) in H9 cells (non-permissive). Put plainly: microbe, parasite or virus in culture. Type of assay: cell-based.
The test system of assay [2] is wild-type HIV-1 (HIV-1LAI) in MT-4 cells (permissive). The experiment in a line: Antiviral activity assay: wild-type HIV-1 in permissive MT4 cells, reverse transcriptase activity in culture supernatants. In kind it is cell-based.
[3] abbreviates: Human immunodeficiency virus 1, H9, read-out: Antiviral activity (IC50 μM) H9, Table 2, wild-type HIV-1, non-permissive H9 cells.
Setting [4] is: Human immunodeficiency virus 1, H9, read-out: Antiviral activity (IC50 μM) H9 Cells, Table 4, wild-type HIV-1, non-permissive H9 cells.
[5] abbreviates: Human immunodeficiency virus 1, H9, read-out: Antiviral activity (IC50 μM) H9 Cells, Table 7, wild-type HIV-1, non-permissive H9 cells.
Setting [6] is: Human immunodeficiency virus 1, H9, read-out: Antiviral activity (IC50 μM) H9 cells, Table 5, wild-type HIV-1, non-permissive H9 cells.
The mark [7] stands for this setting: Human immunodeficiency virus 1, H9, read-out: Antiviral activity (IC50 μM) H9 cells, Table 8, wild-type HIV-1, non-permissive H9 cells.
Setting [8] is: Human immunodeficiency virus 1, H9, read-out: Antiviral activity (IC50 μM) H9 cells, wild-type HIV-1 (HIV-1LAI), H9 cells (non-permissive), RT activity in culture supernatants, compounds 1 to 50 μM.
Setting [9] is: Human immunodeficiency virus 1, H9, read-out: IC50, anti-HIV-1 activity, non-permissive H9 cells.
The mark [10] stands for this setting: Human immunodeficiency virus 1, MT4, Table 2, wild-type HIV-1, permissive MT4 cells, read-out: Antiviral activity (IC50 μM) MT4.
The mark [11] stands for this setting: Human immunodeficiency virus 1, MT4, wild-type HIV-1 (HIV-1LAI), MT4 cells (permissive), RT activity in culture supernatants, compounds 1 to 50 μM, read-out: Antiviral activity (IC50 μM) MT4 cells.

The structures appear in SMILES notation. Read-outs that look alike come from different tables or passages of the source.

As for `COc1cccc(OC)c1-n1cc(-c2ccccc2Sc2ccc(C(=O)O)cc2)nn1` [Compound 6fx, 4-((2-(1-(2,6-Dimethoxyphenyl)-1H-1,2,3-triazol-4-yl)phenyl)thio)benzoic Acid], the half-inhibitory concentration (IC50) in assay [1] (setting [3]), in assay [1] (setting [4]), in assay [1] (setting [5]), in assay [1] (setting [6]), in assay [1] (setting [7]) and in assay [1] (setting [8]) was 1.9 µM each time. Also, the half-inhibitory concentration (IC50) is 1 to 3 µM in assay [1] (setting [9]), above 50 µM in assay [2] (setting [10]) and above 50 µM in assay [2] (setting [11]).
Consider `COc1ccc(Sc2ccccc2-c2cn(-c3cc(OC)ccc3OC)nn2)cc1` [Compound 5cx, 1-(2,5-Dimethoxyphenyl)-4-(2-((4-methoxyphenyl)thio)phenyl)-1H-1,2,3-triazole], for which the IC50 in assay [1] (setting [3]), in assay [1] (setting [4]), in assay [1] (setting [5]), in assay [1] (setting [6]), in assay [1] (setting [7]) and in assay [1] (setting [8]) was 15.7 µM in each case. The concentration for half-maximal inhibition (IC50) in assay [2] (setting [10]) and in assay [2] (setting [11]) was above 50 µM throughout.
Turning to `COc1ccc(OC)c(-n2cc(-c3ccccc3Sc3ccc(C(F)(F)F)cc3)nn2)c1` [Compound 5dx, 1-(2,5-Dimethoxyphenyl)-4-(2-((4-(trifluoromethyl)phenyl)thio)phenyl)-1H-1,2,3-triazole], the concentration for half-maximal inhibition (IC50) is 46.4 µM in assay [1] (setting [3]); 46.4 µM in assay [1] (setting [6]); 46.4 µM in assay [1] (setting [7]); 46.4 µM in assay [1] (setting [8]); above 50 µM in assay [2] (setting [10]); above 50 µM in assay [2] (setting [11]).
For the compound `COc1ccccc1-n1cc(-c2ccccc2Sc2ccc(C(=O)O)cc2)nn1` [Compound 2fx, 4-((2-(1-(2-Methoxyphenyl)-1H-1,2,3-triazol-4-yl)phenyl)thio)benzoic Acid], the IC50 in assay [1] (setting [3]), in assay [1] (setting [4]), in assay [1] (setting [5]), in assay [1] (setting [6]), in assay [1] (setting [7]) and in assay [1] (setting [8]) was 1 µM each time. In addition, the half-inhibitory concentration (IC50) in assay [1] (setting [9]) was 1 to 3 µM; in assay [2] (setting [10]) it was above 50 µM; in assay [2] (setting [11]), above 50 µM.
`COc1ccccc1-n1cc(-c2ccccc2Sc2ccc(N)cc2)nn1` [Compound 2ex, 4-((2-(1-(2-Methoxyphenyl)-1H-1,2,3-triazol-4-yl)phenyl)thio)aniline]: the IC50 in assay [1] (setting [3]) is 2.5 µM; in assay [1] (setting [4]), 7.5 µM; in assay [1] (setting [5]), 2.5 µM; in assay [1] (setting [6]), 2.5 µM; in assay [1] (setting [7]), 2.5 µM; in assay [1] (setting [8]) it was 2.5 µM. Further, the IC50 was 1 to 3 µM in assay [1] (setting [9]), above 50 µM in assay [2] (setting [10]) and above 50 µM in assay [2] (setting [11]).
On to `COc1cccc(OC)c1-n1cc(-c2ccccc2S(=O)(=O)c2ccc(C(=O)O)cc2)nn1` [Compound 6fy, 4-((2-(1-(2,6-Dimethoxyphenyl)-1H-1,2,3-triazol-4-yl)phenyl)sulfonyl)benzoic Acid], for which the IC50 in assay [1] (setting [3]), in assay [1] (setting [4]), in assay [1] (setting [5]), in assay [1] (setting [6]), in assay [1] (setting [7]) and in assay [1] (setting [8]) was 1.2 µM in each case. Also, the results for the IC50 in assay [1] (setting [9]), in assay [2] (setting [10]) and in assay [2] (setting [11]) were 1 to 3 µM, above 50 µM and above 50 µM, respectively.
`COc1ccc(S(=O)(=O)c2ccccc2-c2cn(-c3cc(OC)ccc3OC)nn2)cc1` [Compound 5cy, 1-(2,5-Dimethoxyphenyl)-4-(2-((4-methoxyphenyl)sulfonyl)phenyl)-1H-1,2,3-triazole]: the IC50 in assay [1] (setting [3]), in assay [1] (setting [6]), in assay [1] (setting [7]), in assay [1] (setting [8]), in assay [2] (setting [10]) and in assay [2] (setting [11]) was above 50 µM each time.
In the case of `COc1ccc(S(=O)(=O)c2ccccc2-c2cn(-c3c(F)cccc3OC)nn2)cc1` [Compound 7cy, 1-(2-Fluoro-6-methoxyphenyl)-4-(2-((4-methoxyphenyl)sulfonyl)phenyl)-1H-1,2,3-triazole], the IC50 in assay [1] (setting [3]), in assay [1] (setting [6]), in assay [1] (setting [7]), in assay [1] (setting [8]), in assay [2] (setting [10]) and in assay [2] (setting [11]) was above 50 µM in each case.
For `COc1cccc(F)c1-n1cc(-c2ccccc2S(=O)(=O)c2ccc(C(=O)O)cc2)nn1` [Compound 7fy, 4-((2-(1-(2-Fluoro-6-methoxyphenyl)-1H-1,2,3-triazol-4-yl)phenyl)sulfonyl)benzoic Acid], the IC50 in assay [1] (setting [3]), in assay [1] (setting [6]), in assay [1] (setting [7]), in assay [1] (setting [8]), in assay [2] (setting [10]) and in assay [2] (setting [11]) was above 50 µM in each case.
Regarding `COc1ccccc1-n1cc(-c2ccccc2S(=O)(=O)c2ccc([N+](=O)[O-])cc2)nn1` [Compound 2ay, 1-(2-Methoxyphenyl)-4-(2-((4-nitrophenyl)sulfonyl)phenyl)-1H-1,2,3-triazole], the half-inhibitory concentration (IC50) in assay [1] (setting [3]), in assay [1] (setting [4]), in assay [1] (setting [5]), in assay [1] (setting [6]), in assay [1] (setting [7]) and in assay [1] (setting [8]) was 13.8 µM in each case. The IC50 in assay [2] (setting [10]) and in assay [2] (setting [11]) was above 50 µM each time.
Turning to `COc1cccc(-n2cc(-c3ccccc3S(=O)(=O)c3ccc(C(F)(F)F)cc3)nn2)c1OC` [Compound 3dy, 1-(2,3-Dimethoxyphenyl)-4-(2-((4-(trifluoromethyl)phenyl)sulfonyl)phenyl)-1H-1,2,3-triazole], the IC50 in assay [1] (setting [3]), in assay [1] (setting [6]), in assay [1] (setting [7]), in assay [1] (setting [8]), in assay [2] (setting [10]) and in assay [2] (setting [11]) was above 50 µM throughout.
In the case of `COc1ccc(-n2cc(-c3ccccc3S(=O)(=O)c3ccc(C(F)(F)F)cc3)nn2)c(OC)c1` [Compound 4dy, 1-(2,4-Dimethoxyphenyl)-4-(2-((4-(trifluoromethyl)phenyl)sulfonyl)phenyl)-1H-1,2,3-triazole], the half-maximal inhibitory concentration (IC50) in assay [1] (setting [3]), in assay [1] (setting [4]), in assay [1] (setting [5]), in assay [1] (setting [6]), in assay [1] (setting [7]) and in assay [1] (setting [8]) was 12 µM throughout. Further, the IC50 in assay [2] (setting [10]) and in assay [2] (setting [11]) was above 50 µM each time.
Turning to `COc1ccc(S(=O)(=O)c2ccccc2-c2cn(-c3c(OC)cccc3OC)nn2)cc1` [Compound 6cy, 1-(2,6-Dimethoxyphenyl)-4-(2-((4-methoxyphenyl)sulfonyl)phenyl)-1H-1,2,3-triazole], the IC50 in assay [1] (setting [3]), in assay [1] (setting [6]), in assay [1] (setting [7]), in assay [1] (setting [8]), in assay [2] (setting [10]) and in assay [2] (setting [11]) was above 50 µM each time.
Regarding `COc1cccc(-n2cc(-c3ccccc3S(=O)(=O)c3ccc(N)cc3)nn2)c1OC` [Compound 3ey, 4-((2-(1-(2,3-Dimethoxyphenyl)-1H-1,2,3-triazol-4-yl)phenyl)sulfonyl)aniline], the IC50 in assay [1] (setting [3]), in assay [1] (setting [4]), in assay [1] (setting [5]), in assay [1] (setting [6]), in assay [1] (setting [7]) and in assay [1] (setting [8]) was 12.4 µM throughout. The IC50 in assay [2] (setting [10]) and in assay [2] (setting [11]) was above 50 µM each time.
Consider `COc1cccc(-n2cc(-c3ccccc3S(=O)(=O)c3ccc([N+](=O)[O-])cc3)nn2)c1OC` [Compound 3ay, 1-(2,3-Dimethoxyphenyl)-4-(2-((4-nitrophenyl)sulfonyl)phenyl)-1H-1,2,3-triazole], for which the IC50 in assay [1] (setting [3]), in assay [1] (setting [6]), in assay [1] (setting [7]), in assay [1] (setting [8]), in assay [2] (setting [10]) and in assay [2] (setting [11]) was above 50 µM each time.
Consider `COc1ccc(OC)c(-n2cc(-c3ccccc3Sc3ccc(N)cc3)nn2)c1` [Compound 5ex, 4-((2-(1-(2,5-Dimethoxyphenyl)-1H-1,2,3-triazol-4-yl)phenyl)thio)aniline], for which the IC50 in assay [1] (setting [3]), in assay [1] (setting [6]), in assay [1] (setting [7]), in assay [1] (setting [8]), in assay [2] (setting [10]) and in assay [2] (setting [11]) was above 50 µM in each case.
As for `COc1ccccc1-n1cc(-c2ccccc2S(=O)(=O)c2ccc(C(=O)O)cc2)nn1` [Compound 2fy, 4-((2-(1-(2-Methoxyphenyl)-1H-1,2,3-triazol-4-yl)phenyl)sulfonyl)benzoic acid], the IC50 in assay [1] (setting [3]), in assay [1] (setting [4]), in assay [1] (setting [5]), in assay [1] (setting [6]), in assay [1] (setting [7]) and in assay [1] (setting [8]) was 8.2 µM in each case. In addition, the IC50 in assay [2] (setting [10]) and in assay [2] (setting [11]) was above 50 µM each time.
Consider `COC(=O)c1ccc(S(=O)(=O)c2ccccc2-c2cn(-c3ccccc3OC)nn2)cc1` [Compound 2by, Methyl 4-((2-(1-(2-methoxyphenyl)-1H-1,2,3-triazol-4-yl)phenyl)sulfonyl)benzoate], for which the concentration for half-maximal inhibition (IC50) in assay [1] (setting [3]), in assay [1] (setting [6]), in assay [1] (setting [7]), in assay [1] (setting [8]), in assay [2] (setting [10]) and in assay [2] (setting [11]) was above 50 µM each time.
